These results are taken from publication PMC5740381 (Antimicrobial Agents and Chemotherapy, 2017).

Where two headings read alike, the source gives them in different places.

By EC50 is commonly meant the concentration that produces a half-maximal response.

The subject of experiment [1] is HCV subgenomic stable replicon GT2b. Description: Stable HCV replicon luciferase assay in Huh-7 cells. The settings on record: Hepatitis C virus, 0% human plasma, read-out: Mean EC50 ± SD. In kind it is cell-based. The text has this:
Five of these nine cell lines have been described previously, including those transfected with genotypes 1a H77, 1b Con1, 3a, 4a, and 6a ([28]). […] The genotype 2b and 6e NS3 sequences were each synthetically constructed based on a consensus sequence derived from the alignment of 15 genotype 2b and 4 genotype 6e sequences, respectively. All replicon constructs were bicistronic subgenomic replicons similar to those described by Bartenschlager and coworkers, and the replicon cell lines were generated by introducing these constructs into cells of an Huh-7 human hepatoma-derived cell line ([50]). The inhibitory effect of the PIs on HCV replication in replicon cells was determined in Dulbecco's modified Eagle medium containing 5% fetal bovine serum with or without 40% human plasma (Bioreclamation, Westbury, NY). The EC50s were determined using nonlinear regression curve fitting as described previously ([33]).
(Replicon systems follow genome replication, usually without infectious particles.)

For a further experiment, the system named is HIV-1 IIIB strain. As to the kind of experiment: HIV-1 antiviral cytoprotection assay, CEM-SS cells. In kind it is cell-based, human immunodeficiency virus type 1. The settings on record: Human immunodeficiency virus 1, IIIB, read-out: Mean EC50 ± SD.
Another experiment relates to HBV. As to the kind of experiment: Anti-HBV assay, extracellular HBV DNA by quantitative PCR. Format: cell-based. The settings on record: Hepatitis B virus, read-out: Mean EC50 ± SD.
Experiment [2] relates to HCV replicons with genotype 2a patient proteases. Description: Transient replicon assay with proteases from HCV-infected patients. Format: cell-based. The settings on record: Hepatitis C virus, subtype 2a, no polymorphism, 4 samples. The text has this: (§1) […]. Each of the NS3 gene sequences from genotypes 1, 2, and 4, with the exception of two genotype 2b sequences, was derived from serum or plasma from an HCV-infected patient by bulk PCR amplification, producing a population of sequences representing the viral quasispecies. Two genotype 2b sequences were synthesized based on the consensus sequences of the respective samples. One genotype 3a sequence was synthesized based on a consensus sequence from the sequences available in the Los Alamos HCV sequence database, and another genotype 3a sequence was a clonal sequence derived from a patient sample. The genotype 5a sequence (strain SA13) was synthesized based on the published sequence of the HCV isolate ([48]).
A genotype 2a JFH-1 replicon shuttle vector was used to generate transient replicons containing NS3 from clinical samples from genotype 2a- and genotype 2b-infected patients. The region encoding the first 227 amino acids of NS3 from samples from genotype 2a- and 2b-infected patients was used to replace the corresponding region in the genotype 2a JFH-1 replicon shuttle vector. The genotype 2a JFH-1 replicon shuttle vector was also used to generate a transient replicon containing a region encoding full-length NS3 through the first 39 amino acids of NS5B from genotype 5a (strain SA13). […]

Experiment [3] has as its system HCV replicons with genotype 4a patient proteases. The description is as above. In kind it is cell-based. To be noted: Hepatitis C virus. The text has this:
Each of the NS3 gene sequences from genotypes 1, 2, and 4, with the exception of two genotype 2b sequences, was derived from serum or plasma from an HCV-infected patient by bulk PCR amplification, producing a population of sequences representing the viral quasispecies. Two genotype 2b sequences were synthesized based on the consensus sequences of the respective samples. One genotype 3a sequence was synthesized based on a consensus sequence from the sequences available in the Los Alamos HCV sequence database, and another genotype 3a sequence was a clonal sequence derived from a patient sample. The genotype 5a sequence (strain SA13) was synthesized based on the published sequence of the HCV isolate ([48]).
Transient replicons containing NS3 from clinical samples from HCV genotype 1a- and 1b-infected patients were described previously ([28]).
For the analysis of NS3 sequences from patients, we defined a polymorphism to be an amino acid difference in the sequence of a baseline sample relative to the sequence of the appropriate HCV subtype reference sequence: genotype 1a H77 (GenBank accession number NC_004102), genotype 1b Con1 (GenBank accession number AJ238799), genotype 2a JFH-1 (GenBank accession number AB047639), genotype 2b HC-J8 (GenBank accession number D10988), genotype 3a S52 (GenBank accession number GU814263), genotype 4a ED43 (GenBank accession number GU814265), genotype 4d QC382 (GenBank accession number FJ462437), and genotype 5a SA13 (GenBank accession number AF064490). […] All DNA sequencing was performed by the Sanger sequencing method.

Experiment [4] concerns HCV replicons containing proteases from 40 samples, genotypes 1 to 5. As to the kind of experiment: Transient replicon assay with patient proteases, all 40 samples. The settings on record: Hepatitis C virus, 40 clinical samples. Format: cell-based.
Text: as §1
Transient replicons containing NS3 from clinical samples from HCV genotype 1a- and 1b-infected patients were described previously ([28]). For the transient replicons containing NS3/4A from samples from genotype 3a-infected patients, the first 251 amino acids of NS3 and the region encoding NS4A amino acids 21 to 32 (numbered relative to the NS4A coding region) from these HCV samples were cloned to replace the corresponding residues from the backbone of a genotype 1b Con1 shuttle vector. […]

For another experiment, the system named is HCV genotype 1. The settings on record: 3-day monotherapy, daily doses of 100 to 700 mg, genotype 1 treatment-naive patients; cited from earlier work.

Consider `CC(C)(C)[C@@H]1NC(=O)O[C@@H]2CCC[C@H]2OC/C=C/C(F)(F)c2nc3ccccc3nc2O[C@@H]2C[C@@H](C(=O)N[C@]3(C(=O)NS(=O)(=O)C4(C)CC4)C[C@H]3C(F)F)N(C2)C1=O` [Glecaprevir, (3aR,7S,10S,12R,21E,24aR)-7-tert-butyl-N-[(1R,2R)-2-(difluoromethyl)-1-{[(1-methylcyclopropyl)sulfonyl]carbamoyl}cyclopropyl]-20,20-difluoro-5,8-dioxo-2,3,3a,5,6,7,8,11,12,20,23,24a-dodecahydro-1H,10H-9,12-methanocyclopenta[18,19][1,10,17,3,6]trioxadiazacyclononadecino[11,12-b]quinoxaline-10-carboxamide], for which the EC50 in experiment [1] is 4.6 ± 1.2 nM; in the experiment with HIV-1 IIIB strain, above 22000 nM; with HBV, above 32000 nM; in experiment [2] (read-out: EC50 Median) it was 1.6 nM; in experiment [2] (read-out: EC50 Range) it was 0.66 to 1.9 nM; in experiment [3] (read-out: EC50 Median, subtype 4a, T54S, 1 sample), 0.44 nM. Further, the EC50 in experiment [3] (read-out: EC50 Median, subtype 4a, no polymorphism, 5 samples) was 0.39 nM; in experiment [3] (read-out: EC50 Range, subtype 4a, no polymorphism, 5 samples) it was 0.31 to 0.55 nM; in experiment [4] (read-out: EC50 range, overall), 0.05 to 3.8 nM; in experiment [4] (read-out: Overall median EC50) it was 0.3 nM. Further, in the experiment with HCV genotype 1, the “Mean maximal decrease in HCV plasma viral load from baseline” value is listed as 3.8 to 4.3 log10 IU/ml.

In the case of `Cc1cnc(C(=O)N[C@H]2CCCCC/C=C\[C@@H]3C[C@@]3(C(=O)NS(=O)(=O)C3CC3)NC(=O)[C@@H]3C[C@@H](Oc4nc5ccccc5c5ccccc45)CN3C2=O)cn1` [Paritaprevir], in experiment [1], the EC50 is 107 ± 17 nM.
